Assays:
Format in all cases: in vivo
[1] = system: morning glory (Ipomoea hederacea); assay: Test B postemergence
How it was run: (§1)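 Ratings on a 0 to 100 visual scale (100 complete control) compare treated plants with controls 13 to 15 days after application. Treatments were pre- or postemergence sprays of compound in non-phytotoxic solvent with surfactant.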

wild oat (Avena fatua) = assay: Test B postemergence
How it was run: as §1

[2] = system: blackgrass (Alopecurus myosuroides); assay: Test B postemergence
How it was run: as §1

[3] = system: giant foxtail (Setaria faberii); assay: Test B postemergence
How it was run: as §1

[4] = system: Surinam grass (Brachiaria decumbens); assay: Test B postemergence
How it was run: as §1

[5] = system: cocklebur (Xanthium strumarium); assay: Test B postemergence
How it was run: as §1

[6] = system: barnyardgrass (Echinochloa crus-galli); assay: Test B postemergence
How it was run: as §1

[7] = system: velvetleaf (Abutilon theophrasti); assay: Test B postemergence
How it was run: as §1

[8] = system: pigweed (Amaranthus retroflexus); assay: Test B postemergence
How it was run: as §1

[9] = system: lambsquarters (Chenopodium album); assay: Test B postemergence
How it was run: as §1

[10] = system: crabgrass (Digitaria sanguinalis); assay: Test B postemergence
How it was run: as §1

[11] = system: wheat (Triticum aestivum); assay: Test B postemergence
How it was run: as §1

corn (Zea mays) [12] = assay: Test B postemergence
How it was run: as §1

rice (Oryza saliva) [13] = assay: Test C flooded paddy test; conditions: for Rice plant response rating: Flooded Paddy, scale 0 to 100, 0 no effect, 100 complete control; for Plant response rating, Rice: scale 0 to 100 (0 no effect, 100 complete control)
How it was run: (§2)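 Each species was cultivated to 2 leaves in flooded paddy pots, then treated. After a greenhouse period of 12–14 days, the plants were scored visually relative to controls from 0 (no effect) to 100 (complete control).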

[14] = system: barnyardgrass (Echinochloa crus-galli); assay: Test C flooded paddy test; conditions: for Barnyardgrass plant response rating: Flooded Paddy, scale 0 to 100, 0 no effect, 100 complete control; for Plant response rating, Barnyardgrass: scale 0 to 100 (0 no effect, 100 complete control)
How it was run: as §2

[15] = system: duck salad (Heteranthera limosa); assay: Test C flooded paddy test; conditions: for Ducksalad plant response rating: Flooded Paddy, scale 0 to 100, 0 no effect, 100 complete control; for Plant response rating, Ducksalad: scale 0 to 100 (0 no effect, 100 complete control)
How it was run: as §2

[16] = system: smallflower flatsedge (Cyperus difformis); assay: Test C flooded paddy test; conditions: for Flatsedge plant response rating: Flooded Paddy, scale 0 to 100, 0 no effect, 100 complete control; for Plant response rating, Flatsedge: scale 0 to 100 (0 no effect, 100 complete control)
How it was run: as §2

rice (Oryza saliva) [17] = assay: Test B flooded paddy test; conditions: Rate 1000 g/ha, scale of 0 to 100 where 0 is no effect and 100 is complete control, visually evaluated after 13 to 15 days
Method: (§3) At the same time, plants selected from these crop and weed species and also blackgrass (Alopecurus myosuroides), wheat (Triticum aestivum) and wild oat (Avena fatua) were treated with postemergence applications of test chemicals formulated in the same manner. Plants ranged in height from 2 to 18 cm (1- to 4-leaf stage) for postemergence treatments. Plant species in the flooded paddy test consisted of rice (Oryza saliva), smallflower flatsedge (Cyperus difformis), duck salad (Heteranthera limosa) and barnyardgrass (Echinochloa crus-galli) grown to the 2-leaf stage for testing. Treated plants and controls were maintained in a greenhouse for 13 to 15 days, after which time all species were compared to controls and visually evaluated. Plant response ratings, summarized in Table B, are based on a scale of 0 to 100 where 0 is no effect and 100 is complete control. A dash (-) response means no test result.

[18] = system: barnyardgrass (Echinochloa crus-galli); assay: Test B flooded paddy test; conditions: Rate 1000 g/ha, scale of 0 to 100 where 0 is no effect and 100 is complete control, visually evaluated after 13 to 15 days
Method: as §3

[19] = system: duck salad (Heteranthera limosa); assay: Test B flooded paddy test; conditions: Rate 1000 g/ha, scale of 0 to 100 where 0 is no effect and 100 is complete control, visually evaluated after 13 to 15 days
Method: as §3

[20] = system: morning glory (Ipomoea hederacea); assay: Test B preemergence
How it was run: as §1

rice (Oryza saliva) [21] = assay: Test B preemergence
How it was run: as §1

[22] = system: giant foxtail (Setaria faberii); assay: Test B preemergence
How it was run: as §1

[23] = system: Surinam grass (Brachiaria decumbens); assay: Test B preemergence
How it was run: as §1

[24] = system: cocklebur (Xanthium strumarium); assay: Test B preemergence
How it was run: as §1

[25] = system: barnyardgrass (Echinochloa crus-galli); assay: Test B preemergence
How it was run: as §1

[26] = system: velvetleaf (Abutilon theophrasti); assay: Test B preemergence
How it was run: as §1

[27] = system: pigweed (Amaranthus retroflexus); assay: Test B preemergence
How it was run: as §1

[28] = system: lambsquarters (Chenopodium album); assay: Test B preemergence
How it was run: as §1

[29] = system: crabgrass (Digitaria sanguinalis); assay: Test B preemergence
How it was run: as §1

corn (Zea mays) [30] = assay: Test B preemergence
How it was run: as §1

[31] = system: smallflower flatsedge (Cyperus difformis); assay: Test B flooded paddy test; conditions: Rate 1000 g/ha, scale of 0 to 100 where 0 is no effect and 100 is complete control, visually evaluated after 13 to 15 days
Method: as §3

[32] = Rate 125 g/ha, scale 0 (no effect) to 100 (complete control), 13 to 15 days
[33] = Rate 500 g/ha, scale 0 to 100, 0 is no effect, 100 is complete control, 13 to 15 days
[34] = flooded paddy test, Rate 62 g/ha
[35] = flooded paddy test, Rate 125 g/ha
[36] = preemergence, Rate 125 g/ha, scale of 0 to 100 where 0 is no effect and 100 is complete control, 13 to 15 days
[37] = Preemergence, Rate 500 g/ha, scale 0 to 100, 0 no effect, 100 complete control
[38] = Rate 125 g/ha, scale 0 to 100, 0 no effect, 100 complete control
[39] = Rate 500 g/ha, scale 0 (no effect) to 100 (complete control), 13 to 15 days
[40] = flooded paddy test, Rate 250 g/ha
[41] = flooded paddy test, Rate 62 g/ha, visually evaluated after 12 to 14 days, 0 = no effect, 100 = complete control

CC(C)(C)c1ccn(C2CCN(c3ccc(F)c(Cl)c3)C2=O)n1 (centres unmarked) [Compound 46]
Plant response rating, Morningglory [1, 32]: 0
Plant response rating, Morningglory [1, 33]: 0
Plant response rating, Wild Oat (wild oat (Avena fatua); [32]): 0
Plant response rating, Wild Oat (wild oat (Avena fatua); [33]): 0
Plant response rating, Blackgrass [2, 32]: 0
Plant response rating, Blackgrass [2, 33]: 0
Plant response rating, Foxtail, Giant [3, 32]: 0
Plant response rating, Foxtail, Giant [3, 33]: 0
Plant response rating, Surinam grass [4, 32]: 0
Plant response rating, Surinam grass [4, 33]: 0
Plant response rating, Cocklebur [5, 32]: 0
Plant response rating, Cocklebur [5, 33]: 0
Plant response rating, Barnyardgrass [6, 32]: 0
Plant response rating, Barnyardgrass [6, 33]: 0
Plant response rating, Velvetleaf [7, 32]: 0
Plant response rating, Velvetleaf [7, 33]: 0
Plant response rating, Pigweed [8, 32]: 0
Plant response rating, Pigweed [8, 33]: 0
Plant response rating, Lambsquarters [9, 32]: 0
Plant response rating, Lambsquarters [9, 33]: 70
Plant response rating, Crabgrass [10, 32]: 0
Plant response rating, Crabgrass [10, 33]: 0
Plant response rating, Wheat [11, 32]: 0
Plant response rating, Wheat [11, 33]: 0
Plant response rating, Corn (corn (Zea mays) [12]; [32]): 0
Plant response rating, Corn (corn (Zea mays) [12]; [33]): 0
Rice plant response rating (rice (Oryza saliva) [13]; Rate 250 g/ha): 0
Rice plant response rating (rice (Oryza saliva) [13]; Rate 500 g/ha): 40
Plant response rating, Rice (rice (Oryza saliva) [13]; [34]): 0
Plant response rating, Rice (rice (Oryza saliva) [13]; [35]): 0
Barnyardgrass plant response rating ([14]; Rate 250 g/ha): 50
Barnyardgrass plant response rating ([14]; Rate 500 g/ha): 60
Plant response rating, Barnyardgrass [14, 34]: 0
Plant response rating, Barnyardgrass [14, 35]: 20
Ducksalad plant response rating ([15]; Rate 250 g/ha): 20
Ducksalad plant response rating ([15]; Rate 500 g/ha): 50
Plant response rating, Ducksalad [15, 34]: 0
Plant response rating, Ducksalad [15, 35]: 0
Flatsedge plant response rating ([16]; Rate 250 g/ha): 90
Flatsedge plant response rating ([16]; Rate 500 g/ha): 100
Plant response rating, Flatsedge [16, 34]: 80
Plant response rating, Flatsedge [16, 35]: 90
Plant response rating, Rice (rice (Oryza saliva) [17]): 90
Plant response rating, Barnyardgrass [18]: 100
Plant response rating, Ducksalad [19]: 70
Plant response rating, Morningglory [20, 36]: 0
Plant response rating, Rice (rice (Oryza saliva) [21]; [37]): 0
Plant response rating, Rice (rice (Oryza saliva) [21]; [36]): 0
Plant response rating, Foxtail, Giant [22, 37]: 0
Plant response rating, Foxtail, Giant [22, 36]: 0
Plant response rating, Surinam grass [23, 37]: 0
Plant response rating, Surinam grass [23, 36]: 0
Plant response rating, Cocklebur [24, 37]: 0
Plant response rating, Cocklebur [24, 36]: 0
Plant response rating, Barnyardgrass [25, 37]: 80
Plant response rating, Barnyardgrass [25, 36]: 0
Plant response rating, Velvetleaf [26, 37]: 0
Plant response rating, Velvetleaf [26, 36]: 0
Plant response rating, Pigweed [27, 37]: 100
Plant response rating, Pigweed [27, 36]: 100
Plant response rating, Lambsquarters [28, 37]: 100
Plant response rating, Lambsquarters [28, 36]: 100
Plant response rating, Crabgrass [29, 37]: 0
Plant response rating, Crabgrass [29, 36]: 0
Plant response rating, Corn (corn (Zea mays) [30]; [37]): 0
Plant response rating, Corn (corn (Zea mays) [30]; [36]): 0

COc1cccc(N2CCC(n3ccc(C(C)(C)C)n3)C2=O)c1 (centres unmarked) [Compound 57]
Plant response rating, Rice (rice (Oryza saliva) [17]): 90
Plant response rating, Barnyardgrass [18]: 100
Plant response rating, Ducksalad [19]: 100
Plant response rating, Flatsedge [31]: 100

CC(C)(C)c1ccn(C2CCN(c3ccc(F)c(C(F)(F)F)c3)C2=O)n1 (centres unmarked) [Compound 146]
Plant response rating, Morningglory [1, 38]: 0
Plant response rating, Morningglory [1, 39]: 0
Plant response rating, Wild Oat (wild oat (Avena fatua); [38]): 0
Plant response rating, Wild Oat (wild oat (Avena fatua); [39]): 0
Plant response rating, Blackgrass [2, 38]: 0
Plant response rating, Blackgrass [2, 39]: 0
Plant response rating, Foxtail, Giant [3, 38]: 0
Plant response rating, Foxtail, Giant [3, 39]: 70
Plant response rating, Surinam grass [4, 38]: 0
Plant response rating, Surinam grass [4, 39]: 0
Plant response rating, Cocklebur [5, 38]: 0
Plant response rating, Cocklebur [5, 39]: 0
Plant response rating, Barnyardgrass [6, 38]: 0
Plant response rating, Barnyardgrass [6, 39]: 90
Plant response rating, Velvetleaf [7, 38]: 0
Plant response rating, Velvetleaf [7, 39]: 0
Plant response rating, Pigweed [8, 38]: 0
Plant response rating, Pigweed [8, 39]: 70
Plant response rating, Lambsquarters [9, 38]: 80
Plant response rating, Lambsquarters [9, 39]: 100
Plant response rating, Crabgrass [10, 38]: 0
Plant response rating, Crabgrass [10, 39]: 60
Plant response rating, Wheat [11, 38]: 0
Plant response rating, Wheat [11, 39]: 0
Plant response rating, Corn (corn (Zea mays) [12]; [38]): 0
Plant response rating, Corn (corn (Zea mays) [12]; [39]): 0
Rice plant response rating (rice (Oryza saliva) [13]; Rate 500 g/ha): 85
Plant response rating, Rice (rice (Oryza saliva) [13]; [35]): 50
Plant response rating, Rice (rice (Oryza saliva) [13]; [40]): 50
Plant response rating (scale 0 to 100), Rice (rice (Oryza saliva) [13]; [41]): 15
Barnyardgrass plant response rating ([14]; Rate 500 g/ha): 100
Plant response rating, Barnyardgrass [14, 35]: 100
Plant response rating, Barnyardgrass [14, 40]: 100
Plant response rating (scale 0 to 100), Barnyardgrass [14, 41]: 75
Ducksalad plant response rating ([15]; Rate 500 g/ha): 90
Plant response rating, Ducksalad [15, 35]: 65
Plant response rating, Ducksalad [15, 40]: 80
Plant response rating (scale 0 to 100), Ducksalad [15, 41]: 40
Flatsedge plant response rating ([16]; Rate 500 g/ha): 95
Plant response rating, Flatsedge [16, 35]: 95
Plant response rating, Flatsedge [16, 40]: 95
Plant response rating (scale 0 to 100), Flatsedge [16, 41]: 60
Plant response rating, Morningglory [20, 37]: 40
Plant response rating, Morningglory [20, 36]: 0
Plant response rating, Rice (rice (Oryza saliva) [21]; [37]): 0
Plant response rating, Rice (rice (Oryza saliva) [21]; [36]): 0
Plant response rating, Foxtail, Giant [22, 37]: 100
Plant response rating, Foxtail, Giant [22, 36]: 100
Plant response rating, Surinam grass [23, 37]: 100
Plant response rating, Surinam grass [23, 36]: 40
Plant response rating, Cocklebur [24, 37]: 0
Plant response rating, Cocklebur [24, 36]: 0
Plant response rating, Barnyardgrass [25, 37]: 100
Plant response rating, Barnyardgrass [25, 36]: 90
Plant response rating, Velvetleaf [26, 37]: 20
Plant response rating, Velvetleaf [26, 36]: 0
Plant response rating, Pigweed [27, 37]: 100
Plant response rating, Pigweed [27, 36]: 100
Plant response rating, Lambsquarters [28, 37]: 100
Plant response rating, Lambsquarters [28, 36]: 100
Plant response rating, Crabgrass [29, 37]: 100
Plant response rating, Crabgrass [29, 36]: 100
Plant response rating, Corn (corn (Zea mays) [30]; [37]): 0
Plant response rating, Corn (corn (Zea mays) [30]; [36]): 0
